# In patent US10842779B2, “Heterocyclic compounds and their use in preventing or treating bacterial infections” (priority 2015, dated 2020):
# Read-outs that look alike come from different tables or passages of the source.
# Tests used:
# SHV-1 = molecular target: T1, SHV-1 (Klebsiella pneumoniae, UniProt P0AD64); test: β-Lactamase inhibitory activity, nitrocefin hydrolysis; format: biochemical
# T1 construct: made in house; host or cells: E. coli
# KPC-2 = molecular target: T2, KPC-2 (Klebsiella pneumoniae, UniProt Q9F663); test: as above; format: biochemical; conditions: class (A); 30 min pre-incubation
# T2 construct: made in house; host or cells: E. coli
# T2 sequence (Q9F663 25-293, looked up, species assumed): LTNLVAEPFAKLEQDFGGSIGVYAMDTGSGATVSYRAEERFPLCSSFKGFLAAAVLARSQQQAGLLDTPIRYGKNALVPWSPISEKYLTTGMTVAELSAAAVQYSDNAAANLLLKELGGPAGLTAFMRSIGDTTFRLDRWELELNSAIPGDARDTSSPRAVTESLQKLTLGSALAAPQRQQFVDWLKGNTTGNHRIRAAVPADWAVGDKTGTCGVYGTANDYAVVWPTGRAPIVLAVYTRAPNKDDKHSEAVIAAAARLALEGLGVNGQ
# Description: (§5) Enzyme activity was monitored by spectrophotometric measurement of nitrocefin (NCF-TOKU-E, N005) hydrolysis at 485 nm, at room temperature and in assay buffer A: 100 mM Phosphate pH7, 2% glycerol and 0.1 mg/mL Bovine serum albumin (Sigma, B4287). […] To a transparent polystyrene plate (Corning, 3628) were added in each well 5 μL DMSO or inhibitor dilutions in DMSO and 80 μL enzyme in buffer A. Plates were immediately read at 485 nm in a microplate spectrophotometer (BioTek, PowerWave HT) to enable background subtraction. After 30 min of pre-incubation at room temperature, 15 μL of NCF (200 μM final) were finally added in each well. Final enzyme concentrations were 0.1 nM (TEM-1), 0.075 nM (SHV-1), 0.4 nM (CTX-M-15), 1 nM (KPC-2), 0.2 nM (P99 AmpC), 0.2 nM (CMY-37), 0.4 nM (AmpC P. aeruginosa), 0.2 nM (OXA-1), 1.2 nM (OXA-11), 0.4 nM (OXA-15) and 0.3 nM (OXA-48). After 20 min incubation at room temperature, plates were once again read at 485 nm. Enzyme activity was obtained by subtracting the final signal by the background, and was converted to enzyme inhibition using non inhibited wells. IC50 curves were fitted to a classical Langmuir equilibrium model with Hill slope using XLFIT (IDBS).
# AmpC (P99) = AmpC (P99) (Enterobacter cloacae, UniProt P05364); test: biochemical
# AmpC (P99), sequence (P05364 21-381): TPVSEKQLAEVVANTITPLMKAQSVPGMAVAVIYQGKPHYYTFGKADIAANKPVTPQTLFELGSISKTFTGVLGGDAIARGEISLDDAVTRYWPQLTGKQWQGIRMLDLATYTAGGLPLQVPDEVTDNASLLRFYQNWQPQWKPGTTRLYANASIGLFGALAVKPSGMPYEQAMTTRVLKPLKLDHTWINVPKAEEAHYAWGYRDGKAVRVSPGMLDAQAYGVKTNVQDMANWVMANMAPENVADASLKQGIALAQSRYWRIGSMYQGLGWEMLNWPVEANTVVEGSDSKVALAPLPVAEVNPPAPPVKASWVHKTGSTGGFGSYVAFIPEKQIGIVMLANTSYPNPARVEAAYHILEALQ
# Description: (§1) Method 1: β-Lactamase Inhibitory Activity, Determination of IC50 (Table 1)
# (§2) Enzyme activity was monitored by spectrophotometric measurement of nitrocefin (NCF-TOKU-E, N005) hydrolysis at 485 nm, at room temperature and in assay buffer A: 100 mM Phosphate pH7, 2% glycerol and 0.1 mg/mL Bovine serum albumin (Sigma, B4287). Enzymes were cloned in E. coli expression vector, expressed and purified in house using classical procedures. To a transparent polystyrene plate (Corning, 3628) were added in each well 5 μL DMSO or inhibitor dilutions in DMSO and 80 μL enzyme in buffer A. Plates were immediately read at 485 nm in a microplate spectrophotometer (BioTek, PowerWave HT) to enable background subtraction. After 30 min of pre-incubation at room temperature, 15 μL of NCF (200 μM final) were finally added in each well. Final enzyme concentrations were 0.1 nM (TEM-1), 0.075 nM (SHV-1), 0.4 nM (CTX-M-15), 1 nM (KPC-2), 0.2 nM (P99 AmpC), 0.2 nM (CMY-37), 0.4 nM (AmpC P. aeruginosa), 0.2 nM (OXA-1), 1.2 nM (OXA-11), 0.4 nM (OXA-15) and 0.3 nM (OXA-48). After 20 min incubation at room temperature, plates were once again read at 485 nm. Enzyme activity was obtained by subtracting the final signal by the background, and was converted to enzyme inhibition using non inhibited wells. IC50 curves were fitted to a classical Langmuir equilibrium model with Hill slope using XLFIT (IDBS).
# AmpC (PAE) = AmpC (PAE) (Pseudomonas aeruginosa, UniProt P24735); test: biochemical
# AmpC (PAE), sequence (P24735 27-397): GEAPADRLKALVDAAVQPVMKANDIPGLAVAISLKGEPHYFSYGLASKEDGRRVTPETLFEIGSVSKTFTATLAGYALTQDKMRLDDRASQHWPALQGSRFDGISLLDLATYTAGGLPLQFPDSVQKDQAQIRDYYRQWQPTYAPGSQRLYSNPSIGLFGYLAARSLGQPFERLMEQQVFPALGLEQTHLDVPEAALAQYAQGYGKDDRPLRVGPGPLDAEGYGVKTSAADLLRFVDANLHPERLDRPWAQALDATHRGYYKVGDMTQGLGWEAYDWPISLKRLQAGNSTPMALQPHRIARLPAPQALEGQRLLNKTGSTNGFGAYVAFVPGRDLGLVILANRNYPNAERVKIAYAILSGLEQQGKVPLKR
# Description: as §1, §2
# [1] = molecular target: CMY-37 (Citrobacter freundii); test: β-Lactamase inhibitory activity, nitrocefin hydrolysis; format: biochemical
# CMY-37 (Citrobacter freundii), sequence (A0A9R8 entry or part of it): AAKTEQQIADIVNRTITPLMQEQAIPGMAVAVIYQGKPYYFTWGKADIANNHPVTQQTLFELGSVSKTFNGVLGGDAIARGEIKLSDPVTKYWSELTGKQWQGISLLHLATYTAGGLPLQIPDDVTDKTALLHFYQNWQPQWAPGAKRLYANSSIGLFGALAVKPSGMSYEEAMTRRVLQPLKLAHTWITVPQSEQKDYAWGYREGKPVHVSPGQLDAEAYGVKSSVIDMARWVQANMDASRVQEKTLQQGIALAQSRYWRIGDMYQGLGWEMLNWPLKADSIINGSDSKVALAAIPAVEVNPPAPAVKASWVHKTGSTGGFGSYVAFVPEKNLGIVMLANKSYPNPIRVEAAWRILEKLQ
# Description: as §5
# OXA-11 = molecular target: T3, OXA-11 (Pseudomonas aeruginosa, UniProt Q06778); test: as above; format: biochemical
# T3 construct: made in house; host or cells: E. coli
# T3 sequence (Q06778 21-266): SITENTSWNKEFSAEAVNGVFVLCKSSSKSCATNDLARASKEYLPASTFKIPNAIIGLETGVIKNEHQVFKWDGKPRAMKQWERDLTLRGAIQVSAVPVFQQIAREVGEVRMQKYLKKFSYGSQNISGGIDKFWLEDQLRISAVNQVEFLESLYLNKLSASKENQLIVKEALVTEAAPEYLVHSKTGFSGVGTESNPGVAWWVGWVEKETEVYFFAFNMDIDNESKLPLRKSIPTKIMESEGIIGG
# Description: as §5
# OXA-15 = molecular target: T4, OXA-15 (Pseudomonas aeruginosa, UniProt Q51574); test: as above; format: biochemical
# T4 construct: made in house; host or cells: E. coli
# T4 sequence (Q51574 22-275): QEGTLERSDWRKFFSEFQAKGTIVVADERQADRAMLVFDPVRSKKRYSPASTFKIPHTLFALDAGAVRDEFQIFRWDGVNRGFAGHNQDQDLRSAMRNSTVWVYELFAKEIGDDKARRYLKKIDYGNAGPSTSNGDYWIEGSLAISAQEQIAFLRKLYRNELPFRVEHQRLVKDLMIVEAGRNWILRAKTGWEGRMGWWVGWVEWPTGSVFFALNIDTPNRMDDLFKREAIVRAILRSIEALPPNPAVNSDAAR
# C. freundii = test: Synergy with ceftazidime: MIC of ceftazidime at fixed concentration of compound; format: cell-based; conditions: Citrobacter freundii; CFR UFR10; beta-lactamases OXA-48; read-out: MIC of CAZ + compound (4 μg/mL)
# Description: (§3) Method 2: MIC of Compounds and Synergy with Ceftazidime Against Bacterial Isolates (Table 2 and 3)
# (§4) Compounds of the present invention were assessed against genotyped bacterial strains alone or in combination with the β-lactam ceftazidime. In the assays, MICs of said compounds, or of ceftazidime at fixed concentrations of said compounds were determined by the broth microdilution method according to the Clinical Laboratory Standards Institute (CLSI—M7-A7). Briefly, compounds alone according to the invention were prepared in DMSO and spotted (2 μL each) on sterile polystyrene plates (Corning, 3788). Compounds and ceftazidime dilutions were prepared in DMSO and spotted (1 μL each) on sterile polystyrene plates (Corning, 3788). Log phase bacterial suspensions were adjusted to a final density of 5×10^5 cfu/mL in cation-adjusted Mueller-Hinton broth (Beckton-Dickinson) and added to each well (98 μL). Microplates were incubated for 16-20 h at 35° C. in ambient air. The MIC of the compounds was defined as the lowest concentration of said compounds that prevented bacterial growth as read by visual inspection. The MIC of ceftazidime at each compound concentration was defined as the lowest concentration of ceftazidime that prevented bacterial growth as read by visual inspection.
# C. murliniae = test: as above; format: cell-based; conditions: CMU 210102; beta-lactamases VIM-4; read-out: MIC of CAZ + compound (4 μg/mL)
# Description: as §3, §4
# E. aerogenes = test: as above; format: cell-based; conditions: Klebsiella aerogenes; EAE 200261; beta-lactamases TEM-x AmpC; read-out: MIC of CAZ + compound (4 μg/mL)
# Description: as §3, §4
# E. cloacae = test: as above; format: cell-based; conditions: Enterobacter cloacae
# Description: as §3, §4
# K. oxytoca = test: as above; format: cell-based; conditions: Klebsiella oxytoca, read-out: MIC of CAZ + compound (4 μg/mL)
# Description: as §3, §4
# K. pneumoniae = test: as above; format: cell-based; conditions: Klebsiella pneumoniae
# Description: as §3, §4
# M. morganii = test: as above; format: cell-based; conditions: Morganella morganii, read-out: MIC of CAZ + compound (4 μg/mL)
# Description: as §3, §4
# P. aeruginosa = test: as above; format: cell-based; conditions: Pseudomonas aeruginosa, read-out: MIC of CAZ + compound (4 μg/mL)
# Description: as §3, §4
# P. mirabilis = test: as above; format: cell-based; conditions: Proteus mirabilis; PMI UFR82; beta-lactamases CMY-2; read-out: MIC of CAZ + compound (4 μg/mL)
# Description: as §3, §4
# S. marcescens = test: as above; format: cell-based; conditions: Serratia marcescens; SMA UFR30; beta-lactamases OXA-405; read-out: MIC of CAZ + compound (4 μg/mL)
# Description: as §3, §4
# T1 sequence (P0AD64 22-286): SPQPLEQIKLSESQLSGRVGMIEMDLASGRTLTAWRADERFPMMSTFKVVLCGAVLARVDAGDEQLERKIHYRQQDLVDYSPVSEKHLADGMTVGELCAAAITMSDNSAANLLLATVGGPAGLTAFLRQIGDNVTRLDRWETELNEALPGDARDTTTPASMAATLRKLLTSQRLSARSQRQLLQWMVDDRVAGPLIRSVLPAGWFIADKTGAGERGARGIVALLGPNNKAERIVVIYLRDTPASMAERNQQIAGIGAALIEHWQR
structure (smiles),measurement,setting,value
"O=C(O)C(F)(F)F.O=C1N2C[C@H](c3scnc3[C@H]2c2ncc[nH]2)N1OS(=O)(=O)[O-].[Na+] (relative stereo) [Example 1, Sodium and 2,2,2-trifluoroacetate [trans-7-(1H-imidazol-3-ium-2-yl)-9-oxo-3-thia-5,8,10-triaza-tricyclo[6.2.1.0^2,6]undeca-2(6),4-dien-10-yl]sulfate]",IC50,SHV-1,5.5 nM
same,IC50,KPC-2,4.2 nM
same,IC50,AmpC (P99),0.37 nM
same,IC50,AmpC (PAE),17 nM
same,IC50,[1],0.63 nM
same,IC50,OXA-11,410 nM
same,IC50,OXA-15,270 nM
same,MIC,C. freundii,< 0.25 µg/mL
same,MIC,C. murliniae,< 0.25 µg/mL
same,MIC,E. aerogenes,< 0.25 µg/mL
same,MIC,"E. cloacae; ECL 2185D, beta-lactamases OXA-163, read-out: MIC of CAZ + compound (4 μg/mL)",1 µg/mL
same,MIC,"E. cloacae; ECL 190310, beta-lactamases AmpC, read-out: MIC of CAZ + compound (4 μg/mL)",< 0.25 µg/mL
same,MIC,"E. cloacae; ECL 200138, beta-lactamases AmpC, read-out: MIC of CAZ + compound (4 μg/mL)",8 µg/mL
same,MIC,"E. cloacae; ECL 260033, beta-lactamases AmpC, read-out: MIC of CAZ + compound (4 μg/mL)",4 µg/mL
same,MIC,"E. cloacae; ECL 260323, beta-lactamases AmpC, read-out: MIC of CAZ + compound (4 μg/mL)",< 0.25 µg/mL
same,MIC,"E. cloacae; ECL HAN, beta-lactamases OXA-35, read-out: MIC of CAZ + compound (4 μg/mL)",2 µg/mL
same,MIC,"E. cloacae; ECL NEM146383, beta-lactamases AmpC, read-out: MIC of CAZ + compound (4 μg/mL)",< 0.25 µg/mL
same,MIC,"E. cloacae; ECL P99, beta-lactamases AmpC, read-out: MIC of CAZ + compound (4 μg/mL)",< 0.25 µg/mL
same,MIC,"E. cloacae; ECL UFR12, beta-lactamases CTX-M-9 OXA-48, read-out: MIC of CAZ + compound (4 μg/mL)",< 0.25 µg/mL
same,MIC,"E. cloacae; ECL UFR38, beta-lactamases CTX-M-15 NDM-1, read-out: MIC of CAZ + compound (4 μg/mL)",< 0.25 µg/mL
same,MIC,"E. cloacae; ECL UFR51, beta-lactamases SHV-12 IMP-8, read-out: MIC of CAZ + compound (4 μg/mL)",< 0.25 µg/mL
same,MIC,"E. cloacae; read-out: MIC of CAZ + compound (4 μg/mL), ECL UFR84, beta-lactamases TEM-1 AmpC OXA-1",≤ 0.25 µg/mL
same,MIC,K. oxytoca,< 0.25 µg/mL
same,MIC,"K. pneumoniae; BAA1898, read-out: MIC of CAZ + compound (4 μg/mL), KPN BAA-1898, beta-lactamases TEM-1, SHV-11, SHV-12 KPC-2",0.5 µg/mL
same,MIC,"K. pneumoniae; KPN 700603, beta-lactamases SHV-18 OXA-2, read-out: MIC of CAZ + compound (4 μg/mL)",< 0.25 µg/mL
same,MIC,"K. pneumoniae; KPN LIB, beta-lactamases SHV-11 OXA-48, read-out: MIC of CAZ + compound (4 μg/mL)",< 0.25 µg/mL
same,MIC,"K. pneumoniae; KPN UFR42, beta-lactamases SHV-2, CTX-M-15 OXA-1 OXA-181 NDM-1, read-out: MIC of CAZ + compound (4 μg/mL)",< 0.25 µg/mL
same,MIC,"K. pneumoniae; KPN UFR43, beta-lactamases SHV-11, CTX-M-15 CMY-2 OXA-1 NDM-1, read-out: MIC of CAZ + compound (4 μg/mL)",≤ 0.25 µg/mL
same,MIC,"K. pneumoniae; KPN UFR77, beta-lactamases CMY-2, read-out: MIC of CAZ + compound (4 μg/mL)",< 0.25 µg/mL
same,MIC,"K. pneumoniae; KPN UFR79, beta-lactamases DHA-1 OXA-1, read-out: MIC of CAZ + compound (4 μg/mL)",< 0.25 µg/mL
same,MIC,"K. pneumoniae; KPN UFR80, beta-lactamases SHV-11 DHA-1 OXA-1, read-out: MIC of CAZ + compound (4 μg/mL)",< 0.25 µg/mL
same,MIC,"K. pneumoniae; read-out: MIC of CAZ + compound (4 μg/mL), KPN 6299, beta-lactamases TEM-1, SHV-11 OXA-163",≤ 0.125 µg/mL
same,MIC,"K. pneumoniae; read-out: MIC of CAZ + compound (4 μg/mL), KPN 260252, beta-lactamases TEM-1, SHV-11 KPC-3",> 128 µg/mL
same,MIC,M. morganii,≤ 0.25 µg/mL
same,MIC,"P. aeruginosa; PAE CIP107051, beta-lactamases TEM-24",8 µg/mL
same,MIC,"P. aeruginosa; PAE MUS, beta-lactamases OXA-20 OXA-18",8 µg/mL
same,MIC,P. mirabilis,≤ 0.25 µg/mL
same,MIC,S. marcescens,< 0.25 µg/mL
